Series [1] has as its system peroxidized lipid in rat brain homogenate. The experiment in a line: Lipoperoxidation inhibitory activity in brain homogenate (TBA method). To be noted: 30 minutes at 37° C., final conc. 0.3-100 μM, read-out: Anti-lipoperoxidation Activity IC50. It is filed as biochemical, Wistar male rats. As to the method:
Brain homogenate was prepared using Wistar male rats in accordance with the following procedure. […] A polyethylene tube was inserted into the aorta through the left ventricle, and fixed. Brain perfusion was conducted using ice-cooled 50 mM phosphate buffered saline (PBS), pH 7.4, through the tube, and whole brain was extracted. After removal of the cerebellum, the cerebrum was weighed while wet and homogenated by a Teflon homogenizer under ice-cooling, after addition of nine-fold by weight of PBS. The resultant homogenate was centrifuged at 4° C. (2200 r.p.m., 10 minutes), and an aliquot of the supernatant (0.3 ml) was placed in a light-resistant test tube with ground stopper and used for the following test.
To the brain homogenate obtained above were added PBS (0.6 ml) and an ethanol solution (10 μl) containing a predetermined amount of a test compound. Thus, each of the ethanol solutions was prepared so that the final concentration of the compound was 0.3-100 μM. The mixture was allowed to warm for 30 minutes at 37° C. (external bath temperature). […] (2600 r.p.m., 10 minutes). The resultant supernatant was used in the following quantitative analysis.
The aqueous mixture was heated in a boiling-water bath for 60 minutes and cooled rapidly. Distilled water (1.0 ml) and a mixture of pyridine and butanol (1:15) (5.0 ml) were added to the cooled mixture, and the latter was shaken for 30 seconds and centrifuged (3000 r.p.m., 10 minutes). The supernatant was used as a test sample for quantitative analysis of peroxidized lipid as mentioned below.

The subject of a further series is mice. The experiment in a line: Passive avoidance response test (memory-improving activity, cycloheximide-treated mice). In kind it is in vivo. To be noted: Mus musculus; oral, 15 mice per group, cycloheximide 120 mg/kg s.c., latent time; read-out: Memory-Improving Activity, Minimum Effective Dose. As to the method:
Passive avoidance response test was conducted in mice (15 animals per group) using light-dark differential apparatus of step-down type. The apparatus consisted of a dark room made of black and rigid vinylidene chloride resin [30 cm (depth)×30 cm (width)×31 cm (height)] and a light room, as an adjacent room, made of transparent rigid vinylidene chloride resin. The floor of the light room was set 2 cm higher than the grid surface of the dark room (step down type), and there was a guillotine door between the rooms. The animals were placed in the apparatus and acclimatized before test, and latent time for moving from the light room to the dark room was determined.
The acclimatized animals subcutaneously received 120 mg/kg of cycloheximide (Sigma) dissolved in physiological saline. After 30 minutes of the administration, the animals were placed in the light room. Immediatly after the movement of the animals to the dark room, electric current was applied on the grid (0.5 mA, 3 seconds), which gave the animals "aquired behavior". After 24 hours of the establishment of the aquired behavior, a test compound suspended in 1% tragacanth was administered orally to the animals, which were then returned to the light room. Control animals received only 1% tragacanth. The latent time until an individual animal started to move to the dark room was determined.

A short description of a further series: Acute toxicity, oral. To be noted: rat, in vivo, SD rats, seven-day observation. The method, then:
Compounds of the invention suspended in 1% tragacanth was orally administered to SD rats (both male and female) and mortality (LD50) was determined after seven-day observation.

Series [2] has as its system cytotoxicities caused by active oxygen species. The following applies: background; cited from earlier work.
The conditions of series [3]: background, Iyakuhin Kenkyu 16, 1 (1985); cited from earlier work.

In general, IC50 refers to the concentration needed to halve the response being measured. In general, LD50 refers to the dose at which mortality reaches 50%. The low end stands for greater toxicity, the high end for lower toxicity.

As to `CCCCc1ccc(-c2c(C)[nH]c(=O)n2C)cc1` [Compound No. 2, 5-(4'-n-Butylphenyl)-1,4-dimethyl-4-imidazolin-2-one], in series [1], the IC50 is 10.7 µM. In addition, the minimal effective dose with mice came to 0.1 mg/kg. In the series “Acute toxicity, oral”, this molecule registered an LD50 at 168 h greater than 1000 mg/kg.
On the same counts, the results for `CCCCc1ccc(-c2c(C)[nH]c(=O)n2Cc2ccccc2)cc1` [Compound No. 137, 1-Benzyl-5-(4'-n-butylphenyl)-4-methyl-4-imidazolin-2-one] are 12.4 µM, 0.1 mg/kg and greater than 1000 mg/kg.
In the case of `O=C1O[C@H]([C@@H](O)CO)C(O)=C1O` [Vitamin C], in series [2], the “activity as inhibitory agent for cytotoxicities (in words)” value is listed as “very limited in their activities”.
On to `Cc1[nH]c(=O)n(C)c1-c1ccc(C2CCCCC2)cc1` [compound 8], for which the IC50 in series [1] is 10 µM. The minimal effective dose in the series with mice came out at 0.1 mg/kg. The same molecule returned an LD50 at 168 h in the series “Acute toxicity, oral” greater than 1000 mg/kg.
In the same order, the values of `Cc1[nH]c(=O)n(C)c1-c1ccc(-c2ccccc2)cc1` [compound 16] are 6.3 µM, 0.3 mg/kg and greater than 1000 mg/kg.
For `CCCCOc1ccc(-c2c(C)[nH]c(=O)n2C2CCCCC2)cc1` [compound 111], the IC50 in series [1] is 13.9 µM. For the same molecule, the minimal effective dose with mice is 0.1 mg/kg.
In the same order, the values of `Cc1[nH]c(=O)n(Cc2ccccc2)c1-c1ccc(-c2ccccc2)cc1` [compound 141] are 7.9 µM and 0.1 mg/kg.
In the same order, the values of `CCCCOc1ccc(-c2c(C)[nH]c(=O)n2Cc2ccccc2)cc1` [compound 142] are 12.8 µM and 0.3 mg/kg.
Take `CCN(CC)Cc1nccn1-c1ccc([N+](=O)[O-])cc1C(=O)c1ccccc1Cl` [nizofenone]: the “inhibitory action on CNS (in words)” value in series [3] is “strong inhibitory action on CNS”.
As for Vitamin E, in series [2], the “activity as inhibitory agent for cytotoxicities (in words)” value is reported as “very limited in their activities”.

The values are drawn from patent US5116858A, “4-imidazoline derivatives” (Mitsubishi Kasei Corporation, priority 1989, dated 1992).
